# From patent EP4268819A1 (priority 2022, dated 2023)
# Where two headings read alike, the source gives them in different places.
# Legend:
# [1] = tested on: SARS-CoV-2 clinical omicron isolate
# [2] = tested on: SARS-CoV-2 clinical omicron isolate; assay: microbe, parasite or virus in culture; conditions: Severe acute respiratory syndrome coronavirus 2, Calu-3
SMILES,"Therapeutic range: CC50/IC50 (CTG) ([1]; SARS-CoV-2 omicron in Calu-3 cells, CC50 by CTG)","Therapeutic range: CC50/IC50 (IncuCyte) ([1]; SARS-CoV-2 omicron in Calu-3 cells, CC50 by IncuCyte)","Therapeutic range: CC50/IC50 (MTT) ([1]; SARS-CoV-2 omicron in Calu-3 cells, CC50 by MTT)","Therapeutic range: CC50/IC50 (CTG) ([1]; human, calu-3 cells)","Therapeutic range: CC50/IC50 (IncuCyte) ([1]; human, calu-3 cells)","Therapeutic range: CC50/IC50 (MTT) ([1]; human, calu-3 cells)",IC50 [2]
"COc1[nH]c(=O)c(C(=O)[C@@H](C)C[C@H](C)[C@@H](Cl)CCl)c(O)c1OC [Atpenin A5, atpenin A5]",CTG: 1.3,IncuCyte: > 117.6,MTT: 1.8,,,,
[H]/N=C(/N)N/C(=N/[H])NCCc1ccccc1 [Phenformin],,,,CTG: 1674,IncuCyte: 1111,MTT: 1123,1.35 µM
